Results from patent publication US10670605B2, “Cysteine reactive probes and uses thereof” (The Scripps Research Institute, priority 2015, dated 2020).
Each block holds one molecule with its values, some of them ahead of it.

Key:
Assay in all cases: Competitive isoTOP-ABPP in situ (fragment-treated cells)
Type in all cases: cell-based
[1] = biological target: cysteines in MDA-MB-231 and Ramos cells (Homo sapiens, UniProt P41226); details: 200 μM, insitu, 231
[2] = biological target: T1, cysteines in MDA-MB-231 and Ramos cells (Homo sapiens, UniProt P42695); details: 200 μM, insitu
T1 sequence (P42695 1-1498): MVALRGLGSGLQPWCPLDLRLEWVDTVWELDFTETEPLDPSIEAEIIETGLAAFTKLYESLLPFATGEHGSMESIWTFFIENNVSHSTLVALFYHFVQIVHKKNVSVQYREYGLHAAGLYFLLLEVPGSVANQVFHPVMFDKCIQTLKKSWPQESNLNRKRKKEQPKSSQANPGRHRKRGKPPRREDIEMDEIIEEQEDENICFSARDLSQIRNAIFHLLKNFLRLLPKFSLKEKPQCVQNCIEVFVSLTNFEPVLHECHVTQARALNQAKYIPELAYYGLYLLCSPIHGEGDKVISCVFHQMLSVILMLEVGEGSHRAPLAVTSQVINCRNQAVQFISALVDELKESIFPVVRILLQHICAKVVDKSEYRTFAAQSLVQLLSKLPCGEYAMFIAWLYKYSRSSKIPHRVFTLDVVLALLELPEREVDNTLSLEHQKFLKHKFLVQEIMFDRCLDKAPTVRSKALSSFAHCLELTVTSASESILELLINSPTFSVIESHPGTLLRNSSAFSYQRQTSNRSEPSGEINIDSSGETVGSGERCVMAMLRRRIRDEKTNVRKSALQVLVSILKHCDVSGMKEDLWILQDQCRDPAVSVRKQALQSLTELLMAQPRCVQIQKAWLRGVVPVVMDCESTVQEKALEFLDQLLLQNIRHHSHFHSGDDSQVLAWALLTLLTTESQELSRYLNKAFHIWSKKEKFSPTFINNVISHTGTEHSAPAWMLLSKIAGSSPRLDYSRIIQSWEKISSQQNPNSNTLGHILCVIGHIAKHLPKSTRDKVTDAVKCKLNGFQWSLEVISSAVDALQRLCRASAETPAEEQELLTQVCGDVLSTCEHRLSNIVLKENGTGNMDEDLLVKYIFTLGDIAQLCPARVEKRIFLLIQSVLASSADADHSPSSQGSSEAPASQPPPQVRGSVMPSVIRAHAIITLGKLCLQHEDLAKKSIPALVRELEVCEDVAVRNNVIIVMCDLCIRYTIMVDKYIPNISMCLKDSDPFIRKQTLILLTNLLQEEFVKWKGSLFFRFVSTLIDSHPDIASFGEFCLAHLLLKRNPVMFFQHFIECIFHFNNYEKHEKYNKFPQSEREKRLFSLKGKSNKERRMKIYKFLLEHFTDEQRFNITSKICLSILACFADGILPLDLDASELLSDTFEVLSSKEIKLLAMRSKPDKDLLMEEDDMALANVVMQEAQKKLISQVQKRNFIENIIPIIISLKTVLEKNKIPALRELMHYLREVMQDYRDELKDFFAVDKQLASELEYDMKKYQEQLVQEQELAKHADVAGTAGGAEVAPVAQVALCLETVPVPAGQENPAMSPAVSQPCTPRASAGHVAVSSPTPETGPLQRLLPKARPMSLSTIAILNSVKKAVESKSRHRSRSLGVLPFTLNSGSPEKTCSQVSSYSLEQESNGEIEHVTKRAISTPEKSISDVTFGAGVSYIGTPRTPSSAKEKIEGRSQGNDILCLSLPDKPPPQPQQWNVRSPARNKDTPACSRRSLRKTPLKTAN

[3] = biological target: cysteines in MDA-MB-231 and Ramos cells (Homo sapiens, UniProt Q99986)
Sequence of cysteines in MDA-MB-231 and Ramos cells (Homo sapiens, UniProt Q99986) (Q99986 whole entry): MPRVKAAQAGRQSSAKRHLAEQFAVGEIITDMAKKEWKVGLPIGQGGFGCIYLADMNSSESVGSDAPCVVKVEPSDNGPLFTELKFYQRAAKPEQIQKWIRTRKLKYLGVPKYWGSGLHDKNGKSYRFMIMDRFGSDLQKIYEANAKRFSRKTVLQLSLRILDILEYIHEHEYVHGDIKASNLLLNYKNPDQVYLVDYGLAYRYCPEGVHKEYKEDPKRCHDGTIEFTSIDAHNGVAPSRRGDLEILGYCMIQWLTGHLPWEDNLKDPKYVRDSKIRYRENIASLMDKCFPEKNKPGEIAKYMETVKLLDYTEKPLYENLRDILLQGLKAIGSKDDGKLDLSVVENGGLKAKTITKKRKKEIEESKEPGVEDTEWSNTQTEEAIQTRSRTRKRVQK

[4] = biological target: cysteines in MDA-MB-231 and Ramos cells (Homo sapiens, UniProt Q9NZB2); details: 200 μM, insitu, 231
Sequence of cysteines in MDA-MB-231 and Ramos cells (Homo sapiens, UniProt Q9NZB2) (Q9NZB2 whole entry): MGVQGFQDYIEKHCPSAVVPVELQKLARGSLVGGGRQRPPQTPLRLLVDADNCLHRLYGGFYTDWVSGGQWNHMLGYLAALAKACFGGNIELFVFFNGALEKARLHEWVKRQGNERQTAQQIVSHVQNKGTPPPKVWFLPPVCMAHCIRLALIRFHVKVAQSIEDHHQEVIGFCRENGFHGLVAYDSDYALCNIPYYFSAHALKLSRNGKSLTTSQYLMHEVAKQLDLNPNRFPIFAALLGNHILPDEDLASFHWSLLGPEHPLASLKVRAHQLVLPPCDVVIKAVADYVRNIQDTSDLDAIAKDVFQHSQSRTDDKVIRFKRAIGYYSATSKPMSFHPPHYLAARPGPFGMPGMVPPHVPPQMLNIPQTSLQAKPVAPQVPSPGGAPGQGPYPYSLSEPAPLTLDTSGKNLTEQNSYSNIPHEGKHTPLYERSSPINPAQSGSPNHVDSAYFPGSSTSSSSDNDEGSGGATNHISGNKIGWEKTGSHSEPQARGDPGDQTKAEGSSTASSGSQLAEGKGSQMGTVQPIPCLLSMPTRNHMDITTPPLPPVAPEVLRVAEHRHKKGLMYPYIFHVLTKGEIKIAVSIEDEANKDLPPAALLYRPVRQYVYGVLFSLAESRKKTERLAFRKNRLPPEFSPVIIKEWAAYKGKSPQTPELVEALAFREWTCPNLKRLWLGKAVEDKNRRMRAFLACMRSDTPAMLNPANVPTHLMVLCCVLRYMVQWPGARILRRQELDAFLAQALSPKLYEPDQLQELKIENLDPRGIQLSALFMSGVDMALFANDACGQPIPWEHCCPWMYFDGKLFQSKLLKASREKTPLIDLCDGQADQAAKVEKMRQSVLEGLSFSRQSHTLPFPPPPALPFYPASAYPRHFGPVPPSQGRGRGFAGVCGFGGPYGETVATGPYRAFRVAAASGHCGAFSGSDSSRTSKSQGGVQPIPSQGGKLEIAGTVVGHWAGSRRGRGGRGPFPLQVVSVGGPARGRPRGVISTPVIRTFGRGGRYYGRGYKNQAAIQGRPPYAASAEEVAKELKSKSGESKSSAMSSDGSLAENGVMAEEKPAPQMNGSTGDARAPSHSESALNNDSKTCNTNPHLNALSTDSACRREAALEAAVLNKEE

[5] = biological target: T2, cysteines in MDA-MB-231 and Ramos cells (Homo sapiens, UniProt Q8NEC7); details: 200 μM, insitu
T2 sequence (Q8NEC7 1-633): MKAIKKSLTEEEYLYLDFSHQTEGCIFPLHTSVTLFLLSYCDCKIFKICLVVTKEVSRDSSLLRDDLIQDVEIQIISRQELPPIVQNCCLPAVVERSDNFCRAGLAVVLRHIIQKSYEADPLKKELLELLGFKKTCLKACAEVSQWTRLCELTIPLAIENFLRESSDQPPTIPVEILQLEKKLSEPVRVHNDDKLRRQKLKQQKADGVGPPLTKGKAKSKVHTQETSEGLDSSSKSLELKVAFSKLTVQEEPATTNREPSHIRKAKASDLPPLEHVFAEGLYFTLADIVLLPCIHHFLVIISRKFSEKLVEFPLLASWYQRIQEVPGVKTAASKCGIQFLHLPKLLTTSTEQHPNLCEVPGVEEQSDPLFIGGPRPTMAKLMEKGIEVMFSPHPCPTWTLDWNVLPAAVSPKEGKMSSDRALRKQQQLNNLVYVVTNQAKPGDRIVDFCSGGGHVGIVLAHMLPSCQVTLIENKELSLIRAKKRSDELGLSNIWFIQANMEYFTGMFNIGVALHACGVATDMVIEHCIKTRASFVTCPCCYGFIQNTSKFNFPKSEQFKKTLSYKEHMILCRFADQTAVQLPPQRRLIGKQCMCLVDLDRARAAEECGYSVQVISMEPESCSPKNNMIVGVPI

[6] = biological target: cysteines in MDA-MB-231 and Ramos cells (Homo sapiens, UniProt Q13613); details: 200 μM, insitu
[7] = biological target: cysteines in MDA-MB-231 and Ramos cells (Homo sapiens, UniProt Q6PJG6); details: 200 μM, insitu, ramos
Sequence of cysteines in MDA-MB-231 and Ramos cells (Homo sapiens, UniProt Q6PJG6) (Q6PJG6 whole entry): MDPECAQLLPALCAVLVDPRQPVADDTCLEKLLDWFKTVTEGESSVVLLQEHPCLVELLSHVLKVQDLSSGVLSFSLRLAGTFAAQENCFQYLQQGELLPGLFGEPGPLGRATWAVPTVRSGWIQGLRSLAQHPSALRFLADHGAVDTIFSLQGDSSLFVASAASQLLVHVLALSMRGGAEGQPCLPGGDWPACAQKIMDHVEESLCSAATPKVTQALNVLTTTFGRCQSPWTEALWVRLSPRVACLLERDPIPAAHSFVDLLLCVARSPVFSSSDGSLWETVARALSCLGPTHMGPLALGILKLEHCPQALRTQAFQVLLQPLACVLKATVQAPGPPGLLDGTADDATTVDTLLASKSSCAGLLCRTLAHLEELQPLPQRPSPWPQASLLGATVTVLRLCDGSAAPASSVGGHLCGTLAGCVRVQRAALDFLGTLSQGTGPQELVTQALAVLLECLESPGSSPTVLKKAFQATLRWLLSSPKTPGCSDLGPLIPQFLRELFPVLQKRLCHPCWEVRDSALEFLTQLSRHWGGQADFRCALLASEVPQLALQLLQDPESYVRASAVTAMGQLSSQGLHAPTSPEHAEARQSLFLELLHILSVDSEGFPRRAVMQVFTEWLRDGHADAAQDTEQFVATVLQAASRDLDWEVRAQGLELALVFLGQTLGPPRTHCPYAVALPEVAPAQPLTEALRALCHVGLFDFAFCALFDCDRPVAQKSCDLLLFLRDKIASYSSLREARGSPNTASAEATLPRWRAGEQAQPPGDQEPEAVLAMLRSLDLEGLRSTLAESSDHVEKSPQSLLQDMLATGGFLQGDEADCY

[8] = biological target: cysteines in MDA-MB-231 and Ramos cells (Homo sapiens, UniProt Q13232); details: 200 μM, insitu
Sequence of cysteines in MDA-MB-231 and Ramos cells (Homo sapiens, UniProt Q13232) (Q13232 whole entry): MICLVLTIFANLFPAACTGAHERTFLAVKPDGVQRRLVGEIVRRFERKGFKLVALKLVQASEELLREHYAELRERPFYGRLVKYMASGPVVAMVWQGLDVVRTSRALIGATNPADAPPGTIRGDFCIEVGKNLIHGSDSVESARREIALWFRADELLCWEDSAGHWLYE

[9] = biological target: cysteines in MDA-MB-231 and Ramos cells (Homo sapiens, UniProt Q9P2X3); details: 200 μM, insitu, 231
Sequence of cysteines in MDA-MB-231 and Ramos cells (Homo sapiens, UniProt Q9P2X3) (Q9P2X3 whole entry): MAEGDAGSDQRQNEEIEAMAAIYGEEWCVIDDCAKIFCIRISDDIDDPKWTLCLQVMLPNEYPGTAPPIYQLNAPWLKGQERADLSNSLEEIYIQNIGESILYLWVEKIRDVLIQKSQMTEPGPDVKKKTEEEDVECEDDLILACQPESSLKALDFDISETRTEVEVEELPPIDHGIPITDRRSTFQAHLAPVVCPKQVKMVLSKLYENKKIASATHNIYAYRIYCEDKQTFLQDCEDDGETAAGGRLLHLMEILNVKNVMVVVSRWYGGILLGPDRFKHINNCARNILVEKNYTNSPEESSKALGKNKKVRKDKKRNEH

Sequence of cysteines in MDA-MB-231 and Ramos cells (Homo sapiens, UniProt P41226) (P41226 whole entry): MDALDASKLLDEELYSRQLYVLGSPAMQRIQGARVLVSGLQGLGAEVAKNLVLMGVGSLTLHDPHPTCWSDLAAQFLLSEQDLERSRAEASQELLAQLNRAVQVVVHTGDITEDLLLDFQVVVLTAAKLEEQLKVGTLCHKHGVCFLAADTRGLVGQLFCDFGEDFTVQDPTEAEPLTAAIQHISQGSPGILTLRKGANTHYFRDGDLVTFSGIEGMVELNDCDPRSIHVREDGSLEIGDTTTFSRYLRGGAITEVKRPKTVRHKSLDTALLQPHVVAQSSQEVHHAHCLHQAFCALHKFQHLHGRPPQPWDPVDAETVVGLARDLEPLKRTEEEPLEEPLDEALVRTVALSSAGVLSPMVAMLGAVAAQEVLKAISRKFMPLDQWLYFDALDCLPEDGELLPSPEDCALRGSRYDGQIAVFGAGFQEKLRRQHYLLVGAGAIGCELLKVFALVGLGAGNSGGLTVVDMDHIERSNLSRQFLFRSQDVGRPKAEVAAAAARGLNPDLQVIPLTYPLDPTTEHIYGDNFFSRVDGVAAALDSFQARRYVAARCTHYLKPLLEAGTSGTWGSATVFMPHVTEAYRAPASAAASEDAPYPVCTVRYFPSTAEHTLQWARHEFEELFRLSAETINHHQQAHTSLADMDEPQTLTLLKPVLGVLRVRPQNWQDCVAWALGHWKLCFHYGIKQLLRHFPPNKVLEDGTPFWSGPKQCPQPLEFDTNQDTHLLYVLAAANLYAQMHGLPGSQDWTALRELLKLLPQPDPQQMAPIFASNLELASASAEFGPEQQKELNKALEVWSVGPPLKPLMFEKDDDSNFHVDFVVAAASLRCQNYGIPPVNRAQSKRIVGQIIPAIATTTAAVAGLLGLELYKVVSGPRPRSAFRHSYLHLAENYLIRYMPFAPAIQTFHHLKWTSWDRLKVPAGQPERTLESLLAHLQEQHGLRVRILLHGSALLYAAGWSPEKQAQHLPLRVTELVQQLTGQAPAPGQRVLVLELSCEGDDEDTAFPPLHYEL

isoTOP-ABPP ratio, cysteine P41226_C599 [1]: 8.0
isoTOP-ABPP ratio, cysteine P42695_C541 [2]; 231: 20.0
isoTOP-ABPP ratio, cysteine P42695_C541 ([2]; ramos): 6.5
isoTOP-ABPP ratio, cysteine Q99986_C50 ([3]; 200 μM, insitu, ramos): 0 .7
SMILES: O=C(CCl)N1CCN(S(=O)(=O)c2ccccc2F)CC1 [compound 10]

isoTOP-ABPP ratio, cysteine Q9NZB2_C531 [4]: 20.0
SMILES: O=C(CCl)NC(=O)NC12CC3CC(CC(C3)C1)C2 [compound 12]

isoTOP-ABPP ratio, cysteine Q8NEC7_C140 [5]; 231: 1.8
isoTOP-ABPP ratio, cysteine Q8NEC7_C140 ([5]; ramos): 20.0
SMILES: O=C(CCl)NCCc1c[nH]c2ccccc12 [compound 13]

isoTOP-ABPP ratio, cysteine P41226_C599 [1]: 1.0
isoTOP-ABPP ratio, cysteine P42695_C541 [2]; 231: 2.3
isoTOP-ABPP ratio, cysteine Q13613_C117 [6]; 231: 0.9
isoTOP-ABPP ratio, cysteine Q9NZB2_C531 [4]: 1.6
SMILES: O=C(CCl)NC12CC3CC(CC(C3)C1)C2 [compound 21]

isoTOP-ABPP ratio Q6PJG6_C673 [7]: 4.6
isoTOP-ABPP ratio Q13613_C117 ([6]; ramos): 1.5
isoTOP-ABPP ratio Q13232_C158 ([8]; ramos): 1.5
SMILES: O=C(CCl)N1CCN(CC(=O)N2CCOCC2)CC1 [compound 29]

isoTOP-ABPP ratio Q6PJG6_C673 [7]: 20.0
isoTOP-ABPP ratio Q9P2X3_C195 [9]: 0.5
SMILES: C=CC(=O)N(Cc1cccnc1)c1cc(C(F)(F)F)cc(C(F)(F)F)c1 [compound 31]

isoTOP-ABPP ratio Q8NEC7_C140 [5]; 231: 20.0
isoTOP-ABPP ratio Q9P2X3_C195 [9]: 20.0
isoTOP-ABPP ratio Q13232_C158 [8]; 231: 8.8
reactivity profile of liganded cysteine Q99986_C50 with fragment electrophile (isoTOP-ABPP ratio) ([3]; cysteine Q99986_C50, fragment 200 μM, in situ, 231 (MDA-MB-231) cells): 4.1
SMILES: CC1CCc2ccccc2N1C(=O)CCl (centres unmarked) [compound 45]
